The values that follow are results of earlier work, collected in US20080107726A1, “COMPOSITIONS COMPRISING BETA-ADRENERGIC RECEPTOR ANTAGONISTS AND DIURETICS” (priority 2006, published 2008).

SMILES strings stand for the structures. Counter-ions that a name gives are not always drawn. Like-named read-outs stand apart in the source and are kept apart here.

On to `COCCc1ccc(OCC(O)CNC(C)C)cc1` (racemic) [Metoprolol succinate, (±)-1-(isopropylamino)-3-[p-(2-methoxyethyl)phenoxy]-2-propanol succinate (2:1) (salt)], for which the Solubility result reads like this: (in dichloromethane and 2-propanol) “slightly soluble”; (in ethanol) “sparingly soluble”; (in ethyl acetate, acetone, diethylether and heptane) “practically insoluble”; (in methanol) “soluble”; (in water) “freely soluble”.
